Source: patent publication US9381273B2, “Scaffolds with oxygen carriers, and their use in tissue regeneration” (Yissum Research Development Company of the Hebrew …, priority 2008, dated 2016)

Tests used:
[1] = test system: tet-off BMP2 Luc/GFP cells; test: Cell survival in ectopic implants, bioluminescence imaging (BLI); assay type: in vivo, C3H/HeN mice; conditions: fibrin gel, 5% and 10% PFTBA groups pooled
Text: Imaging of cell viability in vivo—Tet-off BMP2 Luc/GFP Cell viability in the ectopic implants was quantified using the BLI system as was described (Bar, Zilberman et al. 2003). This CCCD tracking system (Roper Chemiluminescence Imaging System) consists of a CCCD camera (model LN/CCD-1300EB; Roper Scientific Inc.) equipped with an ST-133 controller and a 50-mm Nikon lens (Nikon Inc.). In this system, a pseudocolor image represents light intensity (blue signifies least intense and red most intense). The integrated light is the result of 2-minute exposure and acquisition. This CCCD camera converts photons to electrons with an efficiency of approximately 90% in the wavelength emission range of luciferin and converts approximately 1.8 electrons per count. Thus, every count represents 2 photons. The measurement is a total integrated signal of a constant exposure interval. […] The measurement can be verified by using a progressively larger region of interest (ROI) and by subtracting background readings. An increase in the ROI has no appreciable effect on the total intensity that is measured. Before light detection, the mice were anesthetized with a ketamine-xylazine mixture, which is injected intraperitoneally at 1 μl/g body weight. […]

osteocalcin = test: Host osteocalcin gene expression in vivo, BLI in OC/Luc transgenic mice; set-up: species or system OC/Luc Tg mice; conditions: fibrin gel with MSCs, 5 or 10% PFTBA pooled
Text: Osteocalcin gene expression in vivo—In order to analyze the effect of PFTBA supplementation on osteocalcin gene expression in vivo, transgenic mice (Oc-Luc), which harbor the Luc gene under the control of the osteogenic tissue-specific promoter, osteocalcin (Bar, Zilberman et al. 2003) were utilized. In order to monitor Luc activity in real-time a quantitative, the BLI system with the non-invasive cooled charge-coupled device (CCCD) camera was used. In this model, osteogenic activity in the transgenic mice was reported by Luc expression, which is activated by the osteocalcin promoter. This activity is detected by the CCCD as an emitted light following an injection of luciferin. The result values were normalized to constitutive tail expression of Luc, as previously described (Bar, Zilberman et al. 2003), so that the different mice that express the transgene with different intensities could be compared. In this experiment, 1×10^6 tet-off BMP2 cells in fibrin gel supplemented with 5 or 10% PFTBA, or not supplemented at all were implanted.

C3H/HeN mice [2] = test: Cell-mediated posterior spinal fusion, micro CT; assay type: in vivo; conditions: 10% PFTBA
tet-off BMP-2 MSCs = test: LDH release cytotoxicity assay of MSCs in fibrin gel in vitro; assay type: cell-based; conditions: 10% PFTBA (w/v) in 100 μl fibrin gel, 10^6 MSCs, days 1 and 3 after cell seeding
Protocol: Effect of PFTBA on cell survival and oxygen levels—10^6 tet-off BMP-2 MSCs were suspended in 100 μl fibrin gel and cultured in 35-mm plates. In these conditions, the inner region of the hydrogel is hypoxic (data not shown). The experimental groups included hydrogels which included 0% or 10% PFTBA (w/v). Cell death was measured using the LDH release cytotoxicity assay on Days 1, 3, 7 and 14. […] Note that cytotoxicity was reduced over time, probably since nutrients and oxygen supply were more available to the remaining surviving cells. In a separate experiment, oxygen levels were measured in the center of MSC-loaded gels ([…] in 300 μl fibrin gel) using the Microx TX3 oxygen sensor (Presens, Precision Sensing GmbH, Regensburg, Germany).

C3H/HeN mice [3] = test: Radius bone defect regeneration, micro CT; conditions: 2.5-mm radius defect, fibrin gel with MSCs, 14 days
Protocol: Briefly, C3H/HeN female mice aged 6-8 weeks (n=16) were anesthetized using ketamine-xylazine mixture injected intraperitoneal. The skin of the forelimb was swabbed with isopropyl alcohol (70%). The skin was cut and 2.5 mm-long defect was created in the radius bone. Approximately one million Tet-off BMP2 cells were suspended in fibrin gel (Baxter) and supplemented with 5 or 10% PFTBA (Sigma, n=5 for each group) or not supplemented at all (n=6). The cell-gel mixture was incubated for 5 minutes in room temperature (RT) under sterile conditions to allow the fibrin to gel, and was subsequently implanted into the defect site. The mice were sacrificed 2 weeks post-transplantation; limbs were harvested and scanned using the μCT in order to analyze bone formation.
A quantitative morphometric analysis of the bone formation in nonunion fractures, was undertaken using μCT as previously described (Tai, K., et al., 2008, Tissue Eng Part A 14, 1709-1720). Mouse forelimbs, including ulna and radius, as well as native muscle and soft tissue were scanned using a Desktop Cone-Beam Micro-CT Scanner (μCT 40; Scanco Medical AG, Bruttisellen, Switzerland) at a spatial nominal resolution of 20 mm. A constrained 3D Gaussian filter (sigma=0.8 and support=1) was used to partly suppress the noise in the volumes. The bone tissue was segmented from marrow and soft tissue using a global thresholding procedure. In the nonunion fracture site, the evaluation was done only in the central 2-mm of the bone defect, including only newly formed bone. Morphometric indices were determined as described earlier.

C3H/HeN mice [4] = test: Ectopic bone formation by subcutaneous hydrogel implants with Tet-off BMP2 MSCs, micro CT and histology; conditions: for bone volume of ectopic bone: SC implant, mean±standard error
Protocol: Ectopic implantations—At near confluency, Tet-off BMP2 cells or Tet-off BMP2 Luc/GFP cells were trypsinized and counted using the trypan blue exclusion method. Aliquots of cells (one million Tet-off BMP2 cells or 3 million Tet-off BMP2 Luc/GFP cells) were resuspended in 50111 of fibrin or silk gel. Five, 10 or 20% [weight per volume (w/v)] Heptacosafluorotributylamine (Perfluorotributylamine, PFTBA, Sigma catalogue number H5262; Sigma-Aldrich, St Louis, Mo., USA) was added to the hydrogel just before implantations.
The cell-hydrogel mixture was injected subcutaneously in 8 weeks old female C3H/HeN mice, as follows: mice were anesthetized with a mixture of xylazine and ketamine (0.15% xylazine and 0.85% ketamine), which was injected intraperitoneally (i.p.) at 1 μl/g body weight. The area of injection was shaved and cleaned using 70% ethanol. Using 27G tuberculin syringe the cells-gel mixture was injected subcutaneously. Each mouse received 3 or 4 implants, consistent of 50 μl hydrogel in which cells and PFTBA were mixed. Mice where sacrificed after two weeks, and implants were harvested and fixed in 4% formalin.
Analysis of bone formation using micro CT imaging—In order to quantify bone formation in the ectopic implants, a high-resolution μCT system, Desktop μCT 40 (Scanco Medical A G, Bassersdorf, Switzerland) was used. Micro-tomographic slices were acquired at 1000 projections and reconstructed at a spatial nominal resolution of 12 μm. A constrained 3-D Gaussian filter (σ=0.8 and support=1) was used to partly suppress the noise in the volumes. The mineralized tissue was segmented from the hydrogel using a global thresholding procedure (Muller, R., and Ruegsegger, P. 1997, Stud Health Technol Inform 40, 61-79). In addition to the visual assessment of structural images, morphometric indices were determined from the microtomographic datasets using direct 3D morphometry (Hildebrand, T., 1999, J Bone Miner Res 14, 1167-1174). […] The following morphometric indices were determined for the newly formed bone: (i) volume of bone tissue; (ii) bone mineral density; (iii) trabecular thickness; (iv) anisotropy; (v) bone volume density and (vi) trabecular separation.
Histological analysis of bone formation—Harvested ectopic implants and regenerated limbs were processed for histology and stained as described (Sheyn, Kimelman-Bleich et al. 2007). In short, samples were fixed in 70% ethanol, passed through a graded series of ethanols, and embedded in paraffin. Sections 5-8 μm thick were cut from each paraffin block using a motorized microtome (Leica Microsystems, Wetzlar, Germany). Masson trichrom staining was performed in order to evaluate the histomorphology of the mineralized tissue.

[5] = fibrin gel with MSCs, 10% PFTBA (w/v), two weeks

## FC(F)(F)C(F)(F)C(F)(F)C(F)(F)N(C(F)(F)C(F)(F)C(F)(F)C(F)(F)F)C(F)(F)C(F)(F)C(F)(F)C(F)(F)F [PFTBA, Heptacosafluorotributylamine]
[1]; day 3 post implantation
  luciferase activity (cell survival): 21,519±2,047 integrated light units (ILU)
[1]; day 7 post implantation
  luciferase activity (cell survival) versus no-PFTBA group: no significant difference between the groups was found
osteocalcin; day 5 post-implantation
  osteocalcin activity: 2.76±0.48 relative light units (RLU; implant/tail)
osteocalcin; day 7 and 14
  osteocalcin activity versus no PFTBA group: no significant difference was noted
C3H/HeN mice [2]; week 3 post-implantation
  average connectivity density elevation versus no PFTBA group: 1.29 fold
  bone volume density elevation versus no PFTBA group: 1.25 fold
  bone volume difference versus no PFTBA group: this difference was not noted
  trabecular number increase versus no PFTBA group: 1.44 fold
C3H/HeN mice [2]; fibrin gel with MSCs, lumbar paravertebral muscle, 6 weeks post implantation
  bone volume of spinal fusion mass: 70.71±2.7 mm^3
tet-off BMP-2 MSCs
  cell death (LDH release cytotoxicity) versus 0% PFTBA: significantly fewer cells died
C3H/HeN mice [3]; 5 or 10% PFTBA (w/v)
  volume of bone formed versus no PFTBA: no significant difference
C3H/HeN mice [3]; 5 or 10% PFTBA
  BMD elevation of the formed bone, supplemented versus non-supplemented: 1.1-1.2
  trabecular thickness elevation versus no-PFTBA group: 1.3 fold
C3H/HeN mice [4]; fibrin gel with MSCs, 5% PFTBA (w/v), two weeks
  bone volume of ectopic bone: 0.98±0.26 mm^3
C3H/HeN mice [4]; [5]
  bone volume of ectopic bone: 1.77±0.47 mm^3
  increase in bone volume compared with the 0% PFTBA group: 2.5 fold
C3H/HeN mice [4]; fibrin gel, 0%, 5%, 10% PFTBA, day 14, Masson trichrom
  histology of implants (bone, hypertrophic cartilage, bone marrow): No histological difference was found
C3H/HeN mice [4]; two weeks, 1-tailed T-test p=0.033
  volume of the ectopic bone versus no PFTBA group: significant differences were found
